According to US20170319562A1, “Compositions and Methods for Extended Therapy with Aminopyridines” (Acorda Therapeutics, Inc., priority 2009, published 2017):

What was measured:
[1] = test system: patients with multiple sclerosis; experiment: MS-F203 Phase 3 double-blind placebo-controlled study; type: in vivo, human; details: 10 mg b.i.d.
Description: A three stage, stepwise analysis based on this variable was used to establish a positive outcome on the primary endpoint and to establish its clinical meaningfulness with respect to overall walking ability. […] The second step was to register a significant improvement in MSWS-12 score for the Timed-Walk Responders when compared to Timed-Walk Non-Responders. The third step was to confirm maintenance of effect by testing whether those patients who responded to 4-aminopyridine-SR on the T25FW would still register a significant improvement in walking speed relative to placebo-treated patients at the last observed double-blind visit (i.e., the change from baseline in walking speed at the double-blind endpoint). FIG. 47 depicts walking speed improvements found in the MS-F203 study: In FIG. 47, the two graphs show the average change in walking speed from baseline at each of the four visits over the 3 months of double blind treatment. […] There was no indication of a loss of efficacy over, e.g., 12 weeks, 13 weeks, 14 weeks, 3 months of treatment in this study. The MS-F203 study established that the improvement in walking speed seen in treated Timed Walk Responders was maintained over, e.g., 12 weeks, 13 weeks, 14 weeks, 3 months of treatment. The enxtention data herein established that periods greater than those of this study were able to be effeicaious, thus as a durable and chronic therapy. […]

[2] = human, in vivo, po, 10 mg
[3] = test system: chronically injured spinal cord of guinea pigs; details: cited from earlier work
[4] = two formulations of IR tablets; cited from earlier work
[5] = Bioavailability and pharmacokinetics in healthy volunteers; details: 10 mg oral solution

Nc1ccncc1 [4-aminopyridine]
improvement in walking speed across the treatment period ([1]; Timed Walk Non-responders): approximately 7% | average increase in walking speed over the treatment period compared to baseline ([1]; Timed Walk Responders): approximately 25% | time of Cmax after dose administration [2]: approximately 1.1 hours | most effective concentration [3]: about 10 μM | absolute bioavailability [4]: 95% | Cmax [5]: 42.7 ng/mL
